23 compounds from ChEMBL document CHEMBL1122995, “1-[3-(Diarylamino)propyl]piperidines and related compounds, potential antipsychotic agents with low cataleptogenic profiles” (J Med Chem, 1985) can be followed below.

Values joined by “and” are separate entries in the source; they are usually repeats but may differ in a detail not shown here. Identical values can stand only once.

As a reminder, the IC50 is the concentration at which inhibition is half-maximal. Read a high IC50 as weaker potency. As usually defined, the inhibition is the drop in the measured response relative to a control, in per cent. Read a low inhibition as a weak effect.

One assay has as its system Mus musculus. In words: Lowest active dose for the inhibition of locomotor screen falloff test, ip. In kind it is functional.
The species named for assay [1] is Rattus norvegicus. In words: Effective dose determined by suppression of high base-line self-stimulation in adult male hooded rats. In kind it is functional.
The next assay has as its target Dopamine receptor. In words: Inhibition of [3H]haloperidol binding to dopamine receptors in rat striatal membranes.
The species named for assay [2] is Rattus norvegicus. In words: Effective dose determined by catalepsy test in rat. In kind it is functional.
The target of assay [3] is Dopamine receptor (Rattus norvegicus) (UniProt P25115+P19020+P30729+P18901+P61169). Put plainly: Inhibition of [3H]haloperidol binding to dopamine receptors in rat striatal membranes at 10e-8 M. The class given is cell membranes. The note with it: Membrane.
Assay [4] is filed under the species Rattus norvegicus. In words: Effective dose against [3H]haloperidol binding in rat striatal membranes. The class given is functional. The note with it: Striatum, Membrane.

Turning to `O=C(c1ccc(Cl)cc1)C1CCN(CCCN(c2ccc(F)cc2)c2ccc(F)cc2)CC1`, the LAD in the assay on Mus musculus was >100 mg/kg.
Turning to `O=C1NCN(c2ccccc2)C12CCN(CCCN(c1ccc(F)cc1)c1ccc(F)cc1)CC2`, the LAD with Mus musculus amounted to 5 mg/kg. Moreover, the ED50 in the assay listed under Rattus norvegicus [1] was 1.65 mg/kg; in the assay listed under Rattus norvegicus [2] it was 81.2 mg/kg. At Dopamine receptor, this compound showed an IC50 of 0.61 nM.
As for `O=c1[nH]c2ccccc2n1C1CCN(CCCC(c2ccc(F)cc2)c2ccc(F)cc2)CC1` [PIMOZIDE], the LAD in the assay on Mus musculus is <10 mg/kg and 30 mg/kg.
Still for that read-out and setting: the value for `Fc1ccc(N(CCCN2CCN(c3ccccc3)CC2)c2ccc(F)cc2)cc1` was 100 mg/kg.
For `Cc1cc2nc(O)n(C3CCN(CCCN(c4ccc(F)cc4)c4ccc(F)cc4)CC3)c2cc1C`, the LAD in the assay on Mus musculus worked out at 30 mg/kg. In addition, the ED50 in the assay listed under Rattus norvegicus [1] is > 16 mg/kg.
As for `Oc1nc2cc(Cl)c(Cl)cc2n1C1CCN(CCCN(c2ccc(F)cc2)c2ccc(F)cc2)CC1`, the LAD in the assay with Mus musculus was >100 mg/kg.
Consider `O=C1NCN(c2ccccc2)C12CCN(CCN(c1ccc(F)cc1)c1ccc(F)cc1)CC2`, for which the LAD in the assay on Mus musculus amounted to 100 mg/kg.
On to `Oc1nc2ccccc2n1C1CCN(CCCN(c2ccccc2)c2ccccc2)CC1`, for which the LAD in the assay with Mus musculus was determined as 30 mg/kg. The same compound came in with an ED50 in the assay filed under Rattus norvegicus [1] of 13.2 mg/kg.
Take `Oc1nc2cc(Cl)ccc2n1C1CCN(CCCN(c2ccc(F)cc2)c2ccc(F)cc2)CC1`: the LAD with Mus musculus is >100 mg/kg.
`Oc1nc2ccccc2n1C1CCN(CCCN(c2ccccc2)c2cccc(Cl)c2)CC1`: in the assay on Mus musculus, the LAD was >100 mg/kg.
`O=[N+]([O-])c1ccc(N(CCCN2CCC(n3c(O)nc4ccccc43)CC2)c2ccccc2)cc1` displayed an inhibition in assay [3] of 17%. Besides, in the assay with Mus musculus, the LAD is 100 mg/kg.
`OC1(c2ccc(Cl)cc2)CCN(CCCN(c2ccc(F)cc2)c2ccc(F)cc2)CC1`: in the assay on Mus musculus, the LAD was determined as 30 mg/kg. The compound also gave an ED50 in the assay listed under Rattus norvegicus [1] of 4.42 mg/kg.
Compound `COc1ccccc1N1CCN(CCCN(c2ccc(F)cc2)c2ccc(F)cc2)CC1` registered an LAD in the assay on Mus musculus of 30 mg/kg. Also, the values for the ED50 in the assay listed under Rattus norvegicus [1] and in the assay filed under Rattus norvegicus [2] were 5.5 mg/kg and 160 mg/kg, respectively. Further, the IC50 at Dopamine receptor is given as 13 nM.
Turning to `CN1CCN(C2=Nc3cc(Cl)ccc3Nc3ccccc32)CC1` [CLOZAPINE], the LAD in the assay with Mus musculus turned out to be 10 mg/kg. Moreover, the ED50 turned out to be 14.3 mg/kg in the assay filed under Rattus norvegicus [1] and 133 mg/kg in the assay listed under Rattus norvegicus [2].
`Fc1ccc(N(CCCN2CCC(n3c(S)nc4ccccc43)CC2)c2ccc(F)cc2)cc1`: in the assay with Mus musculus, the LAD is >100 mg/kg.
Turning to `O=C1NCN(c2ccccc2)C12CCN(CCCN(c1ccccc1)c1ccc(F)cc1)CC2`, the LAD in the assay with Mus musculus turned out to be 30 mg/kg. The ED50 in the assay listed under Rattus norvegicus [1] came out at 11.7 mg/kg; in the assay listed under Rattus norvegicus [2] it was 156 mg/kg.
`Oc1nc2ccccc2n1C1CCN(CCCN(c2ccc(F)cc2)c2ccccc2F)CC1` showed an inhibition in assay [3] of 92%. In the assay on Mus musculus, this compound returned an LAD of 30 mg/kg. For the same compound, the ED50 in the assay listed under Rattus norvegicus [1] is 11.3 mg/kg; in the assay listed under Rattus norvegicus [2], 156 mg/kg.
In the case of `Oc1nc2ccccc2n1C1=CCN(CCCN(c2ccc(F)cc2)c2ccc(F)cc2)CC1`, in the assay with Mus musculus, the LAD is 30 mg/kg. Moreover, the ED50 was 5.55 mg/kg in the assay listed under Rattus norvegicus [1], 0.32 nM in the assay listed under Rattus norvegicus [4] and 105 mg/kg in the assay filed under Rattus norvegicus [2].
For the compound `Oc1nc2ccccc2n1C1CCN(CCCN(c2ccccc2)c2ccc(F)cc2)CC1`, the inhibition in assay [3] worked out at 84%. In addition, the LAD in the assay on Mus musculus was 30 mg/kg. Besides, the ED50 came to 8.37 mg/kg in the assay listed under Rattus norvegicus [1] and 76 mg/kg in the assay filed under Rattus norvegicus [2].
Regarding `OCCN1CCN(CCCN(c2ccc(F)cc2)c2ccc(F)cc2)CC1`, in the assay with Mus musculus, the LAD is >100 mg/kg.
As for `O=C1NCN(c2ccccc2)C12CCN(CCCCN(c1ccc(F)cc1)c1ccc(F)cc1)CC2`, the LAD in the assay with Mus musculus is >100 mg/kg.
With `O=C1NCN(c2ccccc2)C12CCN(CCCC(c1ccc(F)cc1)c1ccc(F)cc1)CC2`, in the assay on Mus musculus, the LAD is <10 mg/kg. The ED50 in the assay filed under Rattus norvegicus [1] worked out at 1.28 mg/kg; in the assay filed under Rattus norvegicus [2] it was 10.8 mg/kg.
In the same order, the values of `O=C1NCN(c2ccccc2)C12CCN(CCCN(c1ccc(F)cc1)c1cccc(Cl)c1)CC2` are 30 mg/kg, 12.7 mg/kg and 289 mg/kg.
